The nature of data set [1]: Tissue, plasma and GI content pharmacokinetics of tacrolimus, oral vs intra-cecal ingestible device delivery (Example 10). It is filed as in vivo, Yorkshire-Cross farm swine. As to conditions: female, Yorkshire-Cross, pig. The protocol:
The primary objective of this study was to compare the tissue, plasma, rectal sample, and GI content pharmacokinetics of tacrolimus through oral versus intra-cecal ingestible device delivery in normal Yorkshire-Cross farm swine.
(§1) No further randomization procedure was employed.
Animals in Group 1 received an ingestible device containing 0.8 mL of vehicle solution (80% alcohol, 20% HCO-60). Animals in Group 2 received orally […] liquid formulation of tacrolimus at 4 mg/0.8 mL per animal (Prograf: 5 mg/mL). Animals in Group 3 received intra-cecally an ingestible device containing tacrolimus at 1 mg in 0.8 mL per ingestible device. Animals in Group 4 received intra-cecally an ingestible device containing tacrolimus at 2 mg in 0.8 mL per ingestible device. Animals in Group 5 received intra-cecally an ingestible device containing tacrolimus at 4 mg in 0.8 mL per ingestible device. To control for potential confounding effects of the surgery, all groups fast on Day −11 at least 24 hr before being subjected to anesthesia followed by surgical placements of a cecal port by a veterinary surgeon at Day −10. All animals were fasted for at least 12 hr prior to dosing on Day 1. Animals were dosed via either intra-cecal dosing (IC) or oral dosing (PO) at Day 1 (between […].). […]
Approximately 200˜400 mg of rectal content were collected, if available, with a fecal swab (Copan Diagnostics Nylon Flocked Dry Swabs, 502CS01). The fecal swab was pre-weighed and weighed after collection in the collection tube (Sterile Tube and Cap No Media, PFPM913S), and the sample weight was recorded. […]
For tissue necropsy, small intestine fluid and cecal fluid were collected separately from all the animals into two separate square plastic bottles, and stored at −20° C. The length and diameter of the cecum and the colon was measured from one animal in each group and recorded for reference. […] All samples were weighed, and the tissue sample weights were recorded. […] Around 3 grams of the total punched sample were collected into a pre-weighed 15-mL conical tube, and the tissue weight was recorded. […]

A short description of data set [2]: Pharmacokinetic study of oral vs intra-cecal administration of tacrolimus (Example 13). The data set is classed as in vivo, Yorkshire-Cross farm swine. As to conditions: female, Yorkshire-Cross.
Description: as §1

Data set [3] relates to cytokines involved in the JAK/STAT signaling pathway. As to conditions: PO or IC administration; 1 h and 3 h post-treatment.

Where a name gives a salt, the structure may show the parent alone. Read-outs that look alike come from different tables or passages of the source.

For `C=CC[C@@H]1/C=C(\C)C[C@H](C)C[C@H](OC)[C@H]2O[C@@](O)(C(=O)C(=O)N3CCCC[C@H]3C(=O)O[C@H](/C(C)=C/[C@@H]3CC[C@@H](O)[C@H](OC)C3)[C@H](C)[C@@H](O)CC1=O)[C@H](C)C[C@@H]2OC` [tacrolimus], the highest concentration (Cmax) turned out to be 3.53 ± 3.84 ng/mL in data set [1] (in vivo, 0.09 mg/kg, Route PO, Dose (mg · kg) 0.09) and 3.53 ± 3.84 ng/mL in data set [2] (pig, blood, Route PO, Dosage 0.09 mg/kg). Also, the concentration at 12 h was 9.57 ± 0.291 ng/mL in data set [1] (in vivo, po, Trough (12 hr)); less than 10 ng/mL in data set [1] (whole blood, other: oral and intra-cecal (all groups), all groups (FIGS. 87-89 and Table 29), read-out: blood trough concentrations). Besides, the AUC(0-t) in data set [2] (pig, in vivo, po, 0.09 mg/kg) was found to be 16.8 ± 3.64 ng·h/mL. Further, the “Ratio Tissue(mean) (ng/g)/Trough(12 hr)(ng/mL)” value is listed as 0 in data set [2] (pig, in vivo, po, 0.09 mg/kg) and 0 in data set [2] (swine, in vivo, po, 0.09 mg/kg).

With `C[C@@H]1CCN(C(=O)CC#N)C[C@@H]1N(C)c1ncnc2[nH]ccc12` [tofacitinib citrate], in data set [3], the “IL-6 expression in plasma” value is “inhibition of IL-6 expression was observed”.

The term Cmax denotes the highest concentration seen after dosing. Usually AUC(0-t) stands for the area under the concentration-time curve up to a stated or last time point.

For the origin of these results see patent US20210363233A1, “TREATMENT OF A DISEASE OF THE GASTROINTESTINAL TRACT WITH AN IL-12/IL-23 INHIBITOR” (Progenity, Inc., priority 2018, published 2021).
